Values joined by “and” are separate entries in the source; they are usually repeats but may differ in a detail not shown here. Equal entries are not always repeated.
How the values were obtained:
SkBr3-TxR = assay: SRB cell viability assay, lapatinib with/without wilforlide A pretreatment; type: cell-based; conditions: SkBr3-TxR (lapatinib-resistant); 2.5 μg/ml pretreatment
PC3 = assay: SRB cell viability assay, docetaxel with/without wilforlide A pretreatment; conditions: PC3 (docetaxel-sensitive); 0.6, 1.25 or 2.5 μg/ml pretreatment
Method: Following the 72 hour wilforlide A treatment, a sulforhodamine B (SRB) assay was used to quantitate living cells. To perform the assay, the wilforlide A media was aspirated from each well, and replaced with a 10% solution of cold trichloroacetic acid (TCA) (Cat #: T6399, purchased from Sigma-Aldrich), and incubated for one hour at 4° C. After the TCA incubation, the TCA solution was aspirated, and the cells were washed five times with tap water. After removing the last wash, the plates were left with lids off at room temperature until the surfaces were dry, which took one to two hours. Then 50 μl of a 0.4% solution of sul-forhodamine B (SRB) sodium salt (Cat #: S9012, purchased from Sigma-Aldrich) was added to each well and the plates were incubated at room temperature for 20 to 30 minutes. Afterwards, the wells were washed five times with a 1% acetic acid solution in 10 mM TRIS base (Cat #: 161-0719, purchased from Bio-Rad Laboratories, Hercules, Calif.). The plates were subsequently left to dry for several hours or overnight. SRB that remained in the dried wells was solubilized by adding 100 μl of SRB solubilization solution (10 mM TRIS base) to each well, and placing the plates either on a gently-moving shaker or letting the plates remain stationary at room temperature until the SRB dissolves, which takes about five to ten minutes. The amount of SRB in each well, which correlated directly to the number of living cells at fixation, was determined spectrophotometrically at an absorbance of 565 nm by a microplate reader.
In these comparisons, the in vitro IC50 of a tested chemotherapeutic drug (D) in cell culture was compared to the drug's IC50 when drug treatment followed pretreatment of the cells with wilforlide A (Purchased from PI & PI Technology Inc. of Guangzhou, China or the National Institutes for Food and Drug Control in Beijing, China).
Triplicate wells were assigned to each experimental condition tested, and a 24 hour recovery period for the cells following the seeding of the wells was allowed. During the recovery period, the cells were incubated at 37° C. and 5% CO2.
At the end of the two hour pre-treatment period, 50 μl aliquots of the desired chemotherapeutic drug RPMI medium were added according to the amounts provided in Table 2.
After adding the various doses of chemotherapeutic drugs, as described above, the cells were incubated for an additional 72 hours under the same temperature and atmospheric conditions used for the pre-treatment step.
The cells were then incubated for 72 hours at 37° C. and 5% CO2. After the 72 hour incubation, sulforhodamine B (SRB) assays were performed as described in Example 1 to quantitate living cells.

K562/Dox = assay: SRB cell viability assay, daunorubicin with/without wilforlide A pretreatment; type: cell-based; conditions: K562/Dox (daunorubicin-resistant); 2.5 μg/ml pretreatment
Source text: Wilforlide A sensitizes the daunorubicin-resistant myelogenous leukemia line K562/Dox, to daunorubicin. […] FIG. 5 summarizes the data of Tables 20 and 21 in a graphical format.

PC3-TxR cell tumors = assay: In vivo tumor xenograft study, chemosensitizing effect with docetaxel; parameters: species or system SCID mice
Source text: To perform this study, tumors were caused to form in fifty six severe four to six week-old, severe combined immunodeficient (SCID) male mice (Taconic Farms, Inc. Oxnard, Calif.) that weighed from 15 to 20 g were obtained and housed in cages with HEPA-filtered air (12-hr light/dark cycle) by subcutaneously injecting PC3-TxR cells in the mice. To prepare the cells for injection, the cells were suspended in a 1:1 mixture of Matrigel (BC Biosciences, Franklin Lakes, N.J., U.S.A.) and RPMI 1640 (Mediatech, Manassas, Va., or Life Technologies, Grand Island, N.Y.). Then the cells were subcutaneously implanted into planks of mice via injection. Mice that had consistently shown tumor growth for fourteen days following the injection of cells were used in the tumor studies. More specifically, these studies were initiated when the xenografted tumors reached a tumor size of about 120 mm^3, calculated by the formula for a semiepplipoid, i.e., Volume=Width2×(Length/2).

PC3-TxR [1] = assay: SRB cell viability assay, docetaxel with/without wilforlide A pretreatment; type: cell-based, human; conditions: PC3-TxR (docetaxel-resistant); 0.6-5.0 μg/ml pretreatment
PC3-TxR [2] = assay: SRB cell viability assay, 72 h wilforlide A dose-response; type: cell-based, human; conditions: for A at 565 nm: background = 0.044
Method: The determination of the wilforlide A IC50. The IC50 for wilforlide A was determined in vitro for the purpose of identifying wilforlide A concentrations that could be used for determining its chemosensitizing effect (CE) in cell cultures of the docetaxel-resistant prostate cancer line PC3-TxR (Obtained from Prof. Evan T. Keller, University of Michigan).
Post-recovery, the plating media was aspirated from the cell cultures, and replaced with 50 μl per well of RPMI containing a designated concentration of wilforlide A. Then, the cells were incubated in the presence of the wilforlide A media for 72 hours. The 50 μl wilforlide A aliquots were prepared by making 1:3 serial dilutions of a wilforlide A stock solution (0.5 mg/ml in DMSO) to with concentrations ranging from 1×10^2 to 1×10^−3 μg/ml.

DU145-TxR = assay: SRB cell viability assay, docetaxel with/without wilforlide A pretreatment; type: cell-based; conditions: DU145-TxR (docetaxel-resistant); 2.5 μg/ml pretreatment
Source text: FIG. 4 summarizes the data of Tables 18 and 19 in a graphical format.

[3] = Maximum tolerated dose study, single and multiple dose (sdMTD, mdMTD); type: in vivo; conditions: single and multiple (daily, 7 days) dose, CD-1 mice
Method: Maximum tolerated dose (MTD)s of wilforlide A were determined for single MTD (sdMTD) and multiple dose MTD (mdMTD) protocols. […] A seven day-long sdMTD study was performed in which the single dose was administered on day one. A seven day-long mdMTD study was also performed in which wilforlide was administered daily.
(§1) The administration routes used in these studies were intravenous (i.v.), oral gavage (p.o.), and intraperitoneal (i.p.) administration. […] More specifically, working concentrations of wilforlide A were prepared by: (i) dissolving wilforlide A inDMSO at a concentration of 3 mg/ml at 80° C. for use with i.p. administration; (ii) dissolving wilforlide A in Capmul™ at a concentration of 3 mg/ml for use with p.o. administration; and (iii) dissolving wilforlide A inDMSO at a concentration of 1.5 mg/ml at 80° C., and then diluted ten times in 40% HBCD (w/v) for use with i.v. administration. […] Thus, the MTD study was started with these doses.
For each dose regimen tested, 12 CD-1 mice (6 males and 6 females) received appropriate volume of each wilforlide A preparation. The mice were housed with food and water ad libitum. All mice were monitored for the four hour period that immediately followed wilforlide A administration for indications of acute toxicity, as well as monitored at least 3 times daily for one week for indications of delayed toxicity. The mice were also weighed 24 hours post treatment as well as every other day during the week-long study.

[4] = Pharmacokinetics of wilforlide A in mice (plasma, HPLC-MS/MS); type: in vivo; conditions: CD-1 mice; for Cmax: plasma; for T1/2: terminal elimination
Method: as §1
To determine the pharmacokinetics of wilforlide A in mice, wilforlide A was formulated for i.p., p.o., and i.v. administration as describe above, for doses of 6, 30, and 1.2 mg/kg, respectively. Four CD-1 mice were sacrificed prior to wilforlide A administration and at: (i) 5, 10, 15, 20, 30, and 60 min after i.p. administration; (ii) 2, 5, 10, 15, 20, and 30 min after p.o. administration; and (iii) 1, 2, 3, and 4 hours after i.v. administration. At each time point, blood was drawn via heart puncture and plasma was separated by a five min centrifution at 10000 rpm. Plasma wilforlide A concentrations were measured using a validated HPLC-MS/MS method. The peak drug concentration (Cmax) and time to peak drug concentration (Tmax) were read directly from the plasma concentration time course data, while the terminal elimination half-life (T1/2) was calculated to be 0.693/Ke, where Ke was the terminal phase elimination rate. A-C, respectfully.

Bt474-TxR = assay: SRB cell viability assay, lapatinib with/without wilforlide A pretreatment; type: cell-based; conditions: BT474-TxR (lapatinib-resistant); 2.5 or 25 μg/ml pretreatment
[5] = Water solubility of wilforlide A; type: physicochemical

CC1(C)[C@@H](O)CC[C@]2(C)[C@H]3CC=C4[C@@H]5C[C@@]6(C)C[C@H](OC6=O)[C@]5(C)CC[C@@]4(C)[C@]3(C)CC[C@@H]12 [wilforlide A, 3-epiabruslactone A]
chemosensitizing effect to lapatinib (SkBr3-TxR): sensitizes | chemosensitizing effect to docetaxel (PC3): does not significantly enhance the sensitivity | chemosensitizing effect to daunorubicin (K562/Dox): sensitizes | tumor growth (PC3-TxR cell tumors; Group 3: docetaxel 20 mg/kg i.v. weekly + wilforlide A […] i.v. weekly + 6 mg/kg i.p. daily, vs other groups): significant retardation of tumor growth | tumor growth (PC3-TxR cell tumors; wilforlide A alone (Groups 6, 7)): did not significantly inhibit the tumor growth | effect on docetaxel's anti-tumor effect (PC3-TxR cell tumors; wilforlide A with docetaxel 20 mg/kg i.v.): significantly enhanced docetaxel's anti-tumor effect | chemosensitizing effect to docetaxel (PC3-TxR [1]): sensitizes | % viable (PC3-TxR [2]; wilforlide A 0.001 μg/ml 72 h): 100.0% | mean A (PC3-TxR [2]; wilforlide A 0.001 μg/ml 72 h): 2.618 | A at 565 nm (PC3-TxR [2]; wilforlide A 0.001 μg/ml 72 h): 2.599 and 2.624 and 2.607 and 2.635 and 2.593 and 2.646 | % viable (PC3-TxR [2]; wilforlide A 0.1 μg/ml 72 h): 99.6% | mean A (PC3-TxR [2]; wilforlide A 0.1 μg/ml 72 h): 2.606 | A at 565 nm (PC3-TxR [2]; wilforlide A 0.1 μg/ml 72 h): 2.611 and 2.592 and 2.610 and 2.617 and 2.615 | % viable (PC3-TxR [2]; wilforlide A 0.333 μg/ml 72 h): 100.9% | mean A (PC3-TxR [2]; wilforlide A 0.333 μg/ml 72 h): 2.642 | A at 565 nm (PC3-TxR [2]; wilforlide A 0.333 μg/ml 72 h): 2.645 and 2.618 and 2.661 and 2.646 and 2.664 and 2.617 | % viable (PC3-TxR [2]; wilforlide A 1 μg/ml 72 h): 101.5% | mean A (PC3-TxR [2]; wilforlide A 1 μg/ml 72 h): 2.657 | A at 565 nm (PC3-TxR [2]; wilforlide A 1 μg/ml 72 h): 2.626 and 2.629 and 2.755 and 2.658 and 2.659 and 2.616 | % viable (PC3-TxR [2]; wilforlide A 3.33 μg/ml 72 h): 77.7% | mean A (PC3-TxR [2]; wilforlide A 3.33 μg/ml 72 h): 2.033 | A at 565 nm (PC3-TxR [2]; wilforlide A 3.33 μg/ml 72 h): 2.082 and 1.928 and 2.081 and 1.950 and 2.070 and 2.088 | % viable (PC3-TxR [2]; wilforlide A 10 μg/ml 72 h): 13.4% | mean A (PC3-TxR [2]; wilforlide A 10 μg/ml 72 h): 0.351 | A at 565 nm (PC3-TxR [2]; wilforlide A 10 μg/ml 72 h): 0.399 and 0.358 and 0.348 and 0.325 and 0.320 and 0.357 | % viable (PC3-TxR [2]; wilforlide A 33.3 μg/ml 72 h): 2.9% | mean A (PC3-TxR [2]; wilforlide A 33.3 μg/ml 72 h): 0.076 | A at 565 nm (PC3-TxR [2]; wilforlide A 33.3 μg/ml 72 h): 0.096 and 0.072 and 0.074 and 0.073 and 0.069 | % viable (PC3-TxR [2]; wilforlide A 100 μg/ml 72 h): 1.0% | mean A (PC3-TxR [2]; wilforlide A 100 μg/ml 72 h): 0.025 | A at 565 nm (PC3-TxR [2]; wilforlide A 100 μg/ml 72 h): 0.023 and 0.024 and 0.033 and 0.027 and 0.018 | chemosensitizing effect to docetaxel (DU145-TxR): sensitizes | tolerability in MTD study ([3]; 6 mg/kg i.p.): well tolerant | tolerability in MTD study ([3]; 30 mg/kg p.o.): well tolerant | tolerability in MTD study ([3]; […] i.v.): well tolerant | Cmax ([4]; i.p. 6 mg/kg): 0.75 µg/mL | Cmax ([4]; p.o. 30 mg/kg): 0.03 µg/mL | T1/2 ([4]; i.p. 6 mg/kg): 41.0 min | T1/2 ([4]; i.v. […]): 11.2 min | T1/2 ([4]; p.o. 30 mg/kg): 25.6 min | chemosensitizing effect to lapatinib (Bt474-TxR): sensitizes | water solubility [5]: poorly water soluble
